Data from publication PMC12169104, “Towards the development of supramolecular self-associating amphiphiles as antibiofilm agents against Pseudomonas aeruginosa and Candida albicans biofilms” (Journal of Materials Chemistry. B, 2025).
Values joined by “and” are separate entries in the source; they are usually repeats but may differ in a detail not shown here. Equal entries are not always repeated. Marks after values point to notes of the source that are not given here.

Columns and labels:
[1] = 1H NMR dilution study, dimerization constant (EK model, Bindfit v0.5); type: physicochemical; conditions: DMSO-d6/0.5% H2O, SSA anion dimerization
Description: (§1) The self-associative properties of SSAs 1–5, and co-formulations a–j, were studied using previously published methodologies, the results of which are summarised in Table 1.[44,45] Initially, we quantified the strength of homogeneous SSA anion self-association events, to confirm the effect of the squaramide – (thio)urea substitution. […] Complimentary ^1H NMR DOSY experiments conducted in DMSO-d6 0.5% H2O solutions at 298 K confirmed the SSA anion and cation components to diffuse at different rates, providing supporting evidence towards the lack of any strong ion pairing interactions between the SSA anionic and cationic components under these experimental conditions. […] The formation of SSA anionic dimers has also been shown in the solid state through single crystal X-ray diffraction experiments.[42,43,46] […] Here the SSA anion dimer is stabilised through the formation of four intermolecular squaramide-anion hydrogen bonds. Proton NMR spectroscopy dilution study data, obtained from a DMSO-d6 0.5% H2O solution, were then fitted to both the EK (the equal K single component linear self-associative or dimerization model) and CoEK (the cooperative equal K single component linear self-associative or dimerization model) self-association models using Bindfit v0.5.[47,48] […] The dimerization constants calculated confirm that substitution of the sulfonate ion (1 and 3) for the carboxylate ion (2) increase Kdim by approximately 50-fold. However, substituting the thiourea (2) for the squaramide (5) functionality increases the Kdim by a further 70-fold. Therefore, confirming our initial hypothesis, that incorporating the squaramide residue within the SSA anion structure would increase the strength of SSA anion self-association events.

[2] = Membrane fluidity fluorescence polarization (DPH) assay; conditions: SSA 1.5 mM, HEPES buffer pH 7.4, 298 K, n = 3, error = SD
Description: Next, we sought to understand the effects of 1, 2, 4 and 5 and a, c, d, f, g, j on synthetic vesicle phospholipid membrane fluidity using a fluorescence polarization (FP) assay.[52] Here, the fluorescent reporter dye 1,6-diphenyl-1,3,5-hexatriene (DPH) is incorporated into the vesicles phospholipid bilayer. As membrane fluidity is increased, the DPH reporter dye moves more freely within the phospholipid bilayer environment, resulting in a decreased FP value. However, should the membrane become more rigid, the movement of the dye is decreased and the FP value increases. As 3 is intrinsically fluorescent and overlaps with the fluorescence excitation/emission properties of the DPH, this SSA and co-formulations incorporating this compound were not included. […]
Preparation of vesicles: All lipids were purchased as powder stocks from Avanti Polar Lipids. Lipid vesicles were prepared according to standard procedures. Each phospholipid (~ 20 mg) was dissolved in chloroform: methanol 3:1 (~ 10 mL) and the solvent was removed under reduced pressure. The thin film of dried lipid was further dried in vacuo overnight. Lipid films were resuspended in the desired buffer and subjected to 10 freeze-thaw cycles in liquid nitrogen and extruded 19 times through a 200 nm polycarbonate membrane. […]
Preparation of DPH fluorescent labelled vesicles: Lipid films were resuspended in buffer (150 mM KCl, 10 mM HEPES, pH 7.4, 2 mM EGTA) and subjected to 10 freeze-thaw cycles in liquid nitrogen and extruded 20 times through a 200 nm polycarbonate membrane. For fluorescent labelling, the desired vesicles were pre-incubated with DPH (10 µM) at 60 °C for 1 hour.
Membrane fluidity assay: Black bottom 96-well plates were prepared by serially diluting desired SSA in a EtOH: H2O 1:19 solution across the plate, the appropriate DPH labelled vesicles (100 µL, 60 µM) were added to each well to give a total well volume of 200 µL. FP measurements were taken at 25 °C using a 355 nm filter for excitation and a […] for emission. The DPH labelled vesicles were set to a FP value of 100 mP. Data were acquired in endpoint mode. All experiments were repeated in triplicate to ensure experimental reproducibility.

[3] = Quantitative 1H NMR spectroscopy (higher order self-association); type: physicochemical; conditions: D2O:EtOH 19:1, 2.78 mM, 298 K; proportion of compound to become NMR silent
[4] = 1H NMR DOSY, hydrodynamic diameter of SSA anion; type: physicochemical; conditions: DMSO-d6/0.5 % H2O, 298 K
Description: as §1

[5] = Tensiometry: critical aggregation concentration and surface tension; type: physicochemical; conditions: H2O:EtOH 19:1, approx. 291 K; for CAC / CAC (mM): surface tension measurements, bounds represent the limit of solubility; for Surface tension at limit of solubility: footnote c, CAC not reached
[6] = PE:PG 1:1 vesicles with DPH (10 μM)
[7] = PE:PG 3:1 vesicles with DPH (10 μM)

O=S(=O)(O)CCCNC(=S)Nc1ccc(C(F)(F)F)cc1 [SSA 1]
Kdim [1]: 3 M⁻¹ and 2.6 M⁻¹ | Average FP values [2, 6]: 50 ± 1 | Average FP values [2, 7]: −9 ± 3 | Average FP values ([2]; PG vesicles with DPH (10 μM)): 29 ± 1 | Quantitative 1H NMR (%) Anion [3]: 33% | Quantitative 1H NMR (%) Cation [3]: 31% | dH (nm) of SSA anion, 1H NMR DOSY [4]: 1.50 nm

Cc1ccc2nc(-c3ccc(NC(=O)NCS(=O)(=O)O)cc3)sc2c1 [SSA 3]
Kdim [1]: 3 M⁻¹ and 2.7 M⁻¹ | Quantitative 1H NMR (%) Anion [3]: 37% | Quantitative 1H NMR (%) Cation [3]: 37% | dH (nm) of SSA anion, 1H NMR DOSY [4]: 1.64 nm

O=C(O)CNc1c(Nc2ccc(C(F)(F)F)cc2)c(=O)c1=O [SSA 5]
CAC [5]: < 2.78 mM | CAC (mM) [5]: >2.8 ^b mM | Surface tension at limit of solubility [5]: 43 ^c mN m^−1 | Kdim [1]: 7636 M⁻¹ | Average FP values [2, 6]: 146 ± 4 | Average FP values [2, 7]: 106 ± 7 | Average FP values ([2]; PG vesicles with DPH (10 μM)): 152 ± 6 | Quantitative 1H NMR (%) Anion [3]: 33% | Quantitative 1H NMR (%) Cation [3]: 37% | dH (nm) of SSA anion, 1H NMR DOSY [4]: 1.61 nm

O=C(O)CNC(=S)Nc1ccc(C(F)(F)F)cc1 [SSA 2]
CAC (mM) [5]: >10.0 ^b mM | Surface tension at limit of solubility [5]: 41 ^c mN m^−1 | Kdim [1]: 105 M⁻¹ | Average FP values [2, 6]: −1 ± 1 | Average FP values [2, 7]: −40 ± 0 | Average FP values ([2]; PG vesicles with DPH (10 μM)): 11 ± 8 | Quantitative 1H NMR (%) Anion [3]: 43% | Quantitative 1H NMR (%) Cation [3]: 39% | dH (nm) of SSA anion, 1H NMR DOSY [4]: 1.42 nm

O=c1c(NCCCS(=O)(=O)O)c(Nc2ccc(C(F)(F)F)cc2)c1=O [SSA 4]
CAC [5]: < 7.5 mM | CAC (mM) [5]: >7.5 ^b mM | Surface tension at limit of solubility [5]: 42 ^c mN m^−1 | Average FP values [2, 6]: 151 ± 5 | Average FP values [2, 7]: 73 ± 14 | Average FP values ([2]; PG vesicles with DPH (10 μM)): 150 ± 8 | Quantitative 1H NMR (%) Anion [3]: 44% | Quantitative 1H NMR (%) Cation [3]: 39% | dH (nm) of SSA anion, 1H NMR DOSY [4]: 1.65 nm
